Measured values published in ChEMBL document CHEMBL1143211, “Inhibitors of proteases and amide hydrolases that employ an alpha-ketoheterocycle as a key enabling functionality” (Bioorg Med Chem, 2008).

Legend:
[1] = biological target: T1, Fatty-acid amide hydrolase 1 (Rattus norvegicus, UniProt P97612)
T1 sequence (P97612 whole entry): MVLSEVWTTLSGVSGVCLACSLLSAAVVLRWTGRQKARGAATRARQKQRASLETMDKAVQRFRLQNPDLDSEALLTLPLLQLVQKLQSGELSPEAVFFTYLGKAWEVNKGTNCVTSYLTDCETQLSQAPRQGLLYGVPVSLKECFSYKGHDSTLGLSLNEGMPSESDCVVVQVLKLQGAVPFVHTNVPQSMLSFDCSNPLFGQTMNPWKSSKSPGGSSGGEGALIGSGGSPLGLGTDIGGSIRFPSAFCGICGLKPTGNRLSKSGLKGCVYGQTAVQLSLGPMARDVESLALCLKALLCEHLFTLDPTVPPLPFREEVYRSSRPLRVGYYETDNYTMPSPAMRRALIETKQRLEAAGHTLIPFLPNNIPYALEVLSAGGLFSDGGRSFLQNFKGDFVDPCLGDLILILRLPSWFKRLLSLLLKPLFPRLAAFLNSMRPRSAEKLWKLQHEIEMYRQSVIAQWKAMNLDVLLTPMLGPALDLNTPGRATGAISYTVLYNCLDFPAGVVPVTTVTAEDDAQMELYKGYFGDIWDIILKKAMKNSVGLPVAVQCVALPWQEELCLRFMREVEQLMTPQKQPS

Trypsin = Trypsin (Homo sapiens, UniProt P07477+P07478+P35030); experiment: Inhibition of human trypsin; type: protein assay
Prothrombin = Prothrombin (Homo sapiens, UniProt P00734); experiment: Inhibition of human alpha-thrombin
Prolyl endopeptidase = Prolyl endopeptidase (Sus scrofa, UniProt P23687)
Sequence of Prolyl endopeptidase (P23687 whole entry): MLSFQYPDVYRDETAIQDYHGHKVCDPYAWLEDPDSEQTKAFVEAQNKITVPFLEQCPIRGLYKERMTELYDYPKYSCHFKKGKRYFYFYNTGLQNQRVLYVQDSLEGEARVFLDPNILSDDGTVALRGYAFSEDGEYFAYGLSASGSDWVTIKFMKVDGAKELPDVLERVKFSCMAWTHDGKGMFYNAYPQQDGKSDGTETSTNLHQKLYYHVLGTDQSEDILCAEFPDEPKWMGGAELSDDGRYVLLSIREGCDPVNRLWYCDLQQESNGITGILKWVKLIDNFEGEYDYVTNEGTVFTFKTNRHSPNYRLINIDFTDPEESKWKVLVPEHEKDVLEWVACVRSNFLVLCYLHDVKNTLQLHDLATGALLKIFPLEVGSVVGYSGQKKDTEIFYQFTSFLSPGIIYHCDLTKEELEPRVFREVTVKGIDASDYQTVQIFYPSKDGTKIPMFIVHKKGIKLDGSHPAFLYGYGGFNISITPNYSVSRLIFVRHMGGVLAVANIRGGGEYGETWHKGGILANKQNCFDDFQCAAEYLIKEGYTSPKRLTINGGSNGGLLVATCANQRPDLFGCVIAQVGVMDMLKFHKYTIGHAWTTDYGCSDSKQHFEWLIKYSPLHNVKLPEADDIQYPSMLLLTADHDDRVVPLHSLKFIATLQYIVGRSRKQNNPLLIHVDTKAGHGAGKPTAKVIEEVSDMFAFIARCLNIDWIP

[2] = Inhibition of human beta-tryptase
Coagulation factor X = Coagulation factor X (Homo sapiens, UniProt P00742); experiment: Inhibition of human factor 10a
Sequence of Coagulation factor X (P00742 41-179 limits assumed): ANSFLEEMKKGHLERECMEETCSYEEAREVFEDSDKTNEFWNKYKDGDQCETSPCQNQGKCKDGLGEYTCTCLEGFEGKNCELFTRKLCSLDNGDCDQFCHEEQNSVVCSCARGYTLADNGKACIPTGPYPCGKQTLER
Sequence of Coagulation factor X (P00742 235-488 limits assumed): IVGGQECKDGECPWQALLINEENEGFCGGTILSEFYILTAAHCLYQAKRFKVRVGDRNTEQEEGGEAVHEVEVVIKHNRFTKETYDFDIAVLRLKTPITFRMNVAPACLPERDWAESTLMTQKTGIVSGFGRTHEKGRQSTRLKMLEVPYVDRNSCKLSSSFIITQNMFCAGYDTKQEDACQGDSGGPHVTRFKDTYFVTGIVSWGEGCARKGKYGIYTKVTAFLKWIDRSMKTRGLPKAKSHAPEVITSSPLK

[3] = Inhibition of HDAC
Cathepsin S = Cathepsin S (Homo sapiens, UniProt P25774); experiment: Inhibition of human recombinant cathepsin S
Sequence of Cathepsin S (P25774 whole entry): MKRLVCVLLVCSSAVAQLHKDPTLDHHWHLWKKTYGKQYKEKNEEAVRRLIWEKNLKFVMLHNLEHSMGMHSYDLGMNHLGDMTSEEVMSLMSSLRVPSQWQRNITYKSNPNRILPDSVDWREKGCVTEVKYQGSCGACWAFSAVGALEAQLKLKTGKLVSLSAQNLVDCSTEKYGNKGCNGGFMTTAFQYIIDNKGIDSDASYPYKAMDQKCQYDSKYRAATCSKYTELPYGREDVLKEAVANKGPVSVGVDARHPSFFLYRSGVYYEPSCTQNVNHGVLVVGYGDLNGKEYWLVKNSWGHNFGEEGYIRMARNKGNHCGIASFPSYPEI

`CCCCCCCC(=O)c1nc2ncccc2o1` showed a Ki [1] of 0.69 nM.
Work on `C[C@H]1C(=O)N(CCCc2ccccc2)CC(=O)N1CC(=O)N[C@@H](C[C@@H]1CCCN(C(=N)N)C1)C(=O)c1nccs1` yielded an IC50 (Trypsin) of 24000 nM.
In the case of `CN[C@H](Cc1ccccc1)C(=O)N1CCC[C@H]1C(=O)N[C@](C)(CCCNC(=N)N)C(=O)c1nc2ccccc2s1.O=C(O)C(F)(F)F`, the IC50 (Prothrombin) is reported as 3700 nM and the IC50 (Trypsin) is reported as 6000 nM.
`O=C(c1nc2ccccc2s1)[C@@H]1CCCN1C(=O)[C@@H]1CCCN1CCCc1ccccc1` showed an IC50 (Prolyl endopeptidase) of 4 nM.
`CCCCCCCC/C=C\CCCCCCCC(=O)c1ncco1` gave a Ki [1] of 17 nM.
Work on `O=C(c1ccccn1)[C@@H]1CCCN1C(=O)[C@@H]1CCCN1CCCc1ccccc1` yielded an IC50 (Prolyl endopeptidase) of 6.9 nM.
`CC(=O)N[C@@H](CC(C)C)C(=O)N[C@@H](CCCN=C(N)N)C(=O)c1nc2ccccc2s1` showed a Ki [2] of 41 nM.
With `N=C(N)NCCC[C@@H](NS(=O)(=O)Cc1ccccc1)C(=O)NCC(=O)N[C@@H](Cc1c[nH]c2ccccc12)C(=O)c1nccs1` the IC50 (Coagulation factor X) was 39 nM and the IC50 (Trypsin) was > 180000 nM.
For `Cn1nnnc1C(=O)[C@@H](NC(=O)[C@@H]1CC[C@H]2CN(S(=O)(=O)Cc3ccccc3)CC(=O)N21)[C@H]1CC[C@H](N)CC1`, the Ki (Prothrombin) was 5 nM and the Ki (Trypsin) was 35000 nM.
For `NCCCCC(NC(=O)[C@H](Cc1ccccc1)NC(=O)[C@@H](Cc1ccccc1)NS(=O)(=O)Cc1ccccc1)C(=O)c1nc2ccccc2s1` (some centres not stated), the Ki [2] was 23 nM.
Work on `CC(C)(C)CC(=O)N[C@H](Cc1ccccc1)C(=O)N1CCC[C@H]1C(=O)N[C@@H](CCCNC(=N)N)C(=O)c1nc2ccccc2o1.O=C(O)C(F)(F)F` yielded an IC50 (Coagulation factor X) of 110 nM and an IC50 (Trypsin) of 2.3 nM.
In the case of `O=C(CCCCCCOc1ccc(-c2ccccc2)cc1)c1ncc[nH]1`, the IC50 [3] is reported as > 50000 nM.
`CCCCCCCC/C=C\CCCCCCCC(=O)c1nnco1` gave a Ki [1] of 90 nM.
`CCCCCCCC/C=C\CCCCCCCC(=O)c1nc2ccncc2o1` gave a Ki [1] of 3.7 nM.
Compound `O=C(c1cncs1)[C@@H]1CCCN1C(=O)[C@@H]1CCCN1CCCc1ccccc1` has an IC50 (Prolyl endopeptidase) of 1100 nM.
In the case of `COc1ccnc(-c2cnc(C(=O)CCCCCCc3ccccc3)o2)c1`, the Ki [1] is reported as 0.8 nM.
`CCCCC/C=C\C/C=C\C/C=C\C/C=C\CCCC(=O)c1nc2ncccc2o1` gave a Ki [1] of 1 nM.
In the case of `CCCC[C@H](NC(=O)[C@H](CS(=O)(=O)Cc1ccccc1)NC(=O)N1CCOCC1)C(=O)c1nnc(-c2ccccc2)o1`, the Ki (Cathepsin S) is reported as < 100 nM.
For `CNC(=O)C(=O)CCCCCCOc1ccc(-c2ccccc2)cc1`, the IC50 [3] was 110 nM.
`N=C(N)N1CCC([C@H](NC(=O)[C@@H]2CC[C@H]3CN(C(=O)CCc4ccccc4)CC(=O)N32)C(=O)c2nccs2)CC1` gave an IC50 (Trypsin) of 11900 nM.
Work on `O=C(c1nccs1)[C@@H]1CCCN1C(=O)[C@@H]1CCCN1CCCc1ccccc1` yielded an IC50 (Prolyl endopeptidase) of 5 nM.
With `CCC[C@H](NC(=O)[C@@H](CC(=O)N1CCOCC1)CC(C)(C)C)C(=O)c1nc2ccccc2o1` the Ki (Cathepsin S) was < 100 nM.
`O=C(c1nc2ccccc2o1)[C@@H]1CCCN1C(=O)[C@@H]1CCCN1CCCc1ccccc1` showed an IC50 (Prolyl endopeptidase) of 5.6 nM.
For `CCCCC(=O)c1nc2ncccc2o1`, the Ki [1] was 50 nM.
With `O=C(CCCCCCOc1ccc(-c2ccccc2)cc1)c1ccccn1` the IC50 [3] was > 50000 nM.
In the case of `CCCCCCCC/C=C\CCCCCCCC(=O)c1nc2ccccc2s1`, the Ki [1] is reported as > 100000 nM.
With `CCCCCCCC/C=C\CCCCCCCC(=O)c1cccnn1` the Ki [1] was 130 nM.
In the case of `CC(=O)N1C[C@H](O)C[C@H]1C(=O)N[C@@H](CCCNC(=N)N)C(=O)c1nccs1`, the Ki [2] is reported as 180 nM.
For `CC[C@H](NC(=O)[C@H](CS(=O)(=O)Cc1ccccc1)OC(=O)N1CCOCC1)C(=O)c1nc2ccccc2o1`, the Ki (Cathepsin S) was < 10 nM.
`O=C(c1nc2ccccc2s1)[C@@H]1CCCN1C(=O)[C@@H]1CCCN1OCc1ccccc1` showed an IC50 (Prolyl endopeptidase) of 5.6 nM.
Compound `O=C(CCCCCC(=O)c1ncco1)Nc1cccc(-c2ccccc2)c1` has an IC50 [3] of 310 nM.
For `O=C(CCCCCCOc1ccc(-c2ccccc2)cc1)c1ncco1`, the IC50 [3] was 1000 nM.
`CC(=O)N1CCC[C@H]1C(=O)N[C@@H](CCCN=C(N)N)C(=O)c1nc2ccccc2s1` showed an IC50 (Prothrombin) of 14000 nM and a Ki [2] of 19 nM.
For `N=C(N)NCCC[C@H](NC(=O)Cn1c(Cc2ccccc2)c(Cl)nc(NCCc2ccccc2)c1=O)C(=O)c1nccs1`, the IC50 (Trypsin) was 470 nM.
`COc1ccc(-c2csc(NC(=O)CCCCCCC(=O)c3ncco3)n2)cc1` gave an IC50 [3] of 30 nM.
In the case of `O=C(N[C@@H](CCc1ccccc1)C(=O)c1ncco1)[C@@H](CC(=O)N1CCOCC1)CC1CCCCC1`, the Ki (Cathepsin S) is reported as < 100 nM.
With `CCCCCCCC/C=C\CCCCCCCC(=O)c1nccs1` the Ki [1] was > 100000 nM.
